Source: patent US12384969B2, “Enhancement of soil characteristics with lactobionate compounds” (Leprino Foods Company, priority 2017, dated 2025)

Legend:
soil microbial biomass = assay: Soil microbial biomass carbon (MBC), chloroform-fumigation extraction, two-month laboratory soil incubation
[1] = Water absorbed after exposure to 100% relative humidity for 4 hours (FIG. 6); assay type: physicochemical; settings: nine substances plus control
From the text: When one of the hydroxyl groups occurs in the alpha position, the PHA is a polyhydroxy alpha-hydroxy acid (AHA); when an additional sugar is attached to the PHA structure the molecule is a bionic acid. […] The multiple hydroxyl groups in PHAs attract and hydrogen bond surrounding water molecules, which increase the humectant properties of the compounds.

[2] = Akron, CO (Ak) soil, HC, 1 month
[3] = Akron, CO (Ak) soil, LC, 1 month
[4] = Fresno, CA (Fr) soil, HC, 1 month
[5] = Fresno, CA (Fr) soil, HC, 2 wks
[6] = Fresno, CA (Fr) soil, LC, 1 month
[7] = Fresno, CA (Fr) soil, LC, 2 wks

| Structure (SMILES) | MBC (soil microbial biomass; [2]) | MBC (soil microbial biomass; Akron, CO (Ak) soil, HC, 2 wks) | MBC (soil microbial biomass; [3]) | MBC (soil microbial biomass; Akron, CO (Ak) soil, LC, 2 wks) | MBC (soil microbial biomass; [4]) | MBC (soil microbial biomass; [5]) | MBC (soil microbial biomass; [6]) | MBC (soil microbial biomass; [7]) | Weight of water absorbed per mole of substance [1] | Total MBC compared between LB amendments (soil microbial biomass; at 1 month) |
| --- | --- | --- | --- | --- | --- | --- | --- | --- | --- | --- |
| O=C([O-])[C@H](O)[C@@H](O)[C@H](O[C@@H]1O[C@H](CO)[C@H](O)[C@H](O)[C@H]1O)[C@H](O)CO.O=C([O-])[C@H](O)[C@@H](O)[C@H](O[C@@H]1O[C@H](CO)[C@H](O)[C@H](O)[C@H]1O)[C@H](O)CO.[Ca+2] [Ca-LB, calcium lactobionate] | 6395.35^CDE mg C kg -soil | 9197.28^ABC mg C kg -soil | 9816.22^C mg C kg -soil | 13087.10^A mg C kg -soil | 11289.89^BC mg C kg -soil | 10362.94^A mg C kg -soil | 7560.73^CD mg C kg -soil | 10133.11^A mg C kg -soil | – | – |
| O=C([O-])[C@H](O)[C@@H](O)[C@H](O[C@@H]1O[C@H](CO)[C@H](O)[C@H](O)[C@H]1O)[C@H](O)CO.[K+] [K-LB, potassium lactobionate] | 7790.40^CD mg C kg -soil | 8349.51^AC mg C kg -soil | 10597.30^BC mg C kg -soil | 11189.75^A mg C kg -soil | 16689.85^AB mg C kg -soil | 1369.60^A mg C kg -soil | 7277.63^CD mg C kg -soil | 12167.76^A mg C kg -soil | – | – |
| O=C(O)[C@H](O)[C@@H](O)[C@H](O[C@@H]1O[C@H](CO)[C@H](O)[C@H](O)[C@H]1O)[C@H](O)CO [LBA, lactobionic acid] | – | – | – | – | – | – | – | – | highest | – |
| N.O=C(O)[C@H](O)[C@@H](O)[C@H](O[C@@H]1O[C@H](CO)[C@H](O)[C@H](O)[C@H]1O)[C@H](O)CO [NH4-LB, ammonium lactobionate] | 869.62^EF mg C kg -soil | 11037.60^A mg C kg -soil | 3225.38^DEF mg C kg -soil | 9911.52^A mg C kg -soil | 18504.80^A mg C kg -soil | 13627.26^A mg C kg -soil | 739.12^EF mg C kg -soil | 8610.50^AC mg C kg -soil | – | lower |
